Source: patent US6734168B2, “Endothelial monocyte activating polypeptide II: a mediator which activates host response” (The Trustees of Columbia University in the City of New York, priority 1993, dated 2004)
No end group written: not given here.

Key:
human PMNs [1] = assay: PMN migration in microchemotaxis chambers; type: cell-based; parameters: key to PMN MIGRATION: (+) indicates the peptide induced PMN migration; (−) indicates the peptide did not induce PMN migration above levels seen in controls which contained no chemotactic stimulus; conditions: for PMN MIGRATION: peptides 100 pM in each case; for Induction of PMN migration (chemotaxis): microchemotaxis chamber, 45 min at 37° C.
Protocol: (§1) Assessment of mononuclear phagocyte (mononuclears) and polymorphonuclear leukocyte (PMN) migration. Human peripheral blood monocytes were isolated from the blood of normal healthy volunteers (30). Blood was centrifuged on Hisopaque 1077 (Sigma, St. Louis, Mo.), the mononuclear fraction was obtained, washed twice in Earle's balanced salt solution, resuspended in RPMI 1640 containing human serum (10%; Gemini, Calabasas, Calif.), plated on tissue culture dishes and incubated at 37° C. for 1-2 hrs. Nonadherent cells were removed by washing the plate twice with balanced salt solution, and adherent cells were harvested by incubation with calcium-magnesium free buffer containing EDTA (2 mM) for 15 min at 37° C., followed by extensive washing. PMNs were prepared by centrifugation over Hisopaque 1119 as per the manufacturer's protocol (Sigma). Chemotaxis assays were performed in microchemotaxis chamber (NeuroProbe, Bethesda, Md.) containing Nucleopore polycarbonate membranes (5 μm; Nucleopore, Pleasonton, Calif.). Mononuclears or PMNs were suspended in RPMI 1640 containing fetal bovine serum (1%) and 10^4 cells were added per well to the upper chamber. The chemotactic stimulus was added to the indicated chamber, and assays were performed in quadruplicate over a 3 hr or 45 min incubation period at 37° C., with mononuclear cells or PMNs, respectively, after which non-migrating cells were removed, membranes were fixed in methanol, migrating cells were visualized with Wright's stain. Cells in nine high-power fields were counted, and the mean and standard error of the mean (SEM) were determined.
(§2) Cell migration was studied by adding MPs or PMNs (10^4 cells/well) resuspended in RPMI 1640 with fetal calf serum (1%; Gemini) to the upper wells of a microchemotaxis chamber (Neuro Probe, Bethesda, Md.) containing Nucleopore polycarbonate membranes (5 μm, Nucleopore, Pleasanton Calif.), as described (7,29-30). The chemotactic stimulus was placed in the upper or lower chamber, as indicated, and cells were allowed to migrate for 3 hrs (for MPs) or 45 min (for PMNs) at 37° C. Following removal of non-migrating cells, membranes were fixed in methanol and migrating cells were visualized with Wright's stain. Assays were performed in quadruplicate, and cells were counted in nine high-power fields in each case (mean±SEM is shown in the figures).
(§3) Migration of PMNs and MPs—Migration was studied using cells (10^4 and 10^3 cells/well form PMNs and MPs, respectively) resuspended in RPMI 1640 with fetal calf serum (1%) added to the upper wells of a microchemotaxis chamber (Neuro Probe, Bethesda, Md.) containing Nucleopore polycarbonate membranes (5 um, Nucleopor, Pleasanton, Calif.), as described (13, 22, 35). The stimulus was placed in the upper or lower chamber, as indicated, and the cells were allowed to migrate for 3 h (for MPs) or 45 min (for PMNs) at 37° C. Following removal of nonmigrating cells, membranes were fixed in methanol, and migrating cells were visualized with Wright's stain. Assays were performed in quadruplicate, and cells were counted in […] high-power fields in each case (mean±S.E. is shown in the figures).

human MPs [2] = assay: Radioligand binding of 125I-[…] to MPs; conditions: for Competition for binding of 125I-RIGRIVTAKY to MPs by unlabelled peptide/protein: excess / increasing concentrations of unlabelled competitor
Protocol: Radioligand binding studies were performed on human MPs plated in 96-well plates (5-6×10^4 cells/well). Cells were washed twice with Hanks balanced salt solution, and then Dulbecco's Modified Eagle Medium containing HEPES (25 mM; pH 7.4), penicillin/streptomycin (50 U/ml; 50 μg/ml), and bovine serum albumin-fatty acid free (0.5%; Sigma) were added (0.1 ml/well). Cultures were incubated at 4° C. for 2 hrs with ^125I-[…] alone or in the presence of unlabelled peptide/protein. Each well was washed four times over a period of 20 sec, and cell-associated radioactivity was eluted by an acidic buffer (HCl, 0.1 M, pH 2; NaCl, 0.1 M) at 4° C. for 5 min. During the elution period, there was no detachment of cells from the growth substrate. The conditions for incubation and washing used in the binding studies shown in FIG. 3 (2 hrs at 4° C.) were […] to allow binding of ^125I-[…] to reach an apparent maximum, even at the lowest tracer concentrations, and to remove unbound material by washing quickly so that <10% of the cell-bound radioactivity dissociated.

human PMNs [3] = assay: [Ca2+]i measurement in PMNs (fura-2); type: cell-based
Protocol: (§4) [Ca^2+1]i measurements. PMNs or MPs (2×10^7 cells in each case) were incubated with fura-2 AM (1 μM) and pluronic detergent (0.02%) for 12 min at room temperature, diluted sixfold, and incubated for a further 30 min at room temperature to allow for complete hydrolysis of the dye. Cells were then resuspended in HEPES-buffered saline at 5×10^5 cells/ml (32). For experiments using MPs, sulfinpyrazone (0.5 mM) was included at all steps to minimize both dye sequestration into intracellular organelles and dye efflux (33). Fluorescence of fura-2 was monitored at 37° C. in a thermostatically-controlled cuvette installed in a Perkin Elmer Model 650-40 fluorescense spectrophotometer. Calibration of [Ca^2+]i was performed as described (34).
(§5) For determination of [Ca^2+] in PMSs and MPs, cells (2×10^7 in each case) were incubated with fura-2 AM (1 um) and pluronci detergent (0.02%) at room temperature, diluted 6-fold, and incubated for a further 30 min at room temperature to allow for complete hydrolysis of the dye. Cells were then resuspended in HEPES-buffered saline at 5×10^5 cells/ml (32). For MPs, sulfinpyrazone (0.5 mM) was included at all steps to minimize both dye sequestration into intracellular organelles and dye efflux (33). Fluorescence of fura-2 was monitored at 37° C. in a thermostatically controlled cuvette installed in a Perkin Elmer model 650-40 fluorescence spectrophotometer. Calibration of [Ca^2+] was performed as described (34).

[4] = test system: human peripheral blood monocytes (MPs); assay: Mononuclear phagocyte migration in microchemotaxis chambers; type: cell-based; conditions: microchemotaxis chamber, 3 hrs at 37° C.
Protocol: as §1, §2, §3

ECs = assay: Pilot binding studies using ECs; conditions: data not shown
human MPs [5] = assay: [Ca2+]i measurement in MPs (fura-2); type: cell-based
Protocol: as §4
as §5, with “Calibration of [Ca^2+] was performed as described (34).” left out

Substance	PMN MIGRATION (human PMNs [1])	Competition for binding of 125I-RIGRIVTAKY to MPs by unlabelled peptide/protein (human MPs [2])	further results
LRIGRIVTAKY	+		
ASRLDL	−	had no effect	Rise in [Ca2+]i in PMNs (human PMNs [3]): inactive
ASRLDLRIGC*IVTAK	+		
CRAQTMANSGIK [peptide derived from the C-terminal portion of EMAP II, reference compound]		had no effect	Induction of PMN migration (chemotaxis) (human PMNs [1]): no chemotaxis was observed; Induction of MP (mononuclear cell) migration (chemotaxis) [4]: inactive
RIGRAVT	−	had no effect	
125I-RIGRIVTAKY (also: 125I label)			N, binding sites (human MPs [2]; 4° C.): 8.3±1.2×10^3 molecules of peptide bound per cell; Kd (human MPs [2]; read-out: Kd of specific binding to MPs (one-site model), 4° C.): 0.19 ± 0.11 nM; Specific binding to ECs (ECs): specific binding
AVLPRSAKELRL [peptide derived from the ELR-region of IL-8, residues #23-34, reference compound]			Induction of PMN migration (chemotaxis) (human PMNs [1]): no chemotaxis was observed; Induction of MP (mononuclear cell) migration (chemotaxis) [4]: inactive
ASRLDLRTGRIVT		blocked	
RIGRIIT	+		
ASRLDLRIGRIVTAK	+		
RIGRIVT	+	blocked	Rise in [Ca2+]i in PMNs (human PMNs [3]): did not promote enhanced [Ca^2+]i; Rise in [Ca2+]i in MPs (human MPs [5]): insufficient to promote increases in [Ca^2+]i
AIGRIVT	+		
IRKDMDKVETFLRIVQ [irrelevant peptide derived from growth hormone, reference compound]			Induction of PMN migration (chemotaxis) (human PMNs [1]): no chemotaxis was observed; Induction of MP (mononuclear cell) migration (chemotaxis) [4]: inactive
RICRIVTAK		inhibition	
RIGRIVTAKY	+		Rise in [Ca2+]i in PMNs (human PMNs [3]): did not promote enhanced [Ca^2+]i
